# Measured values from patent US20080145313A1, “Compositions and Methods for the Treatment and Prevention of Neoplastic Disorders” (Genesis Research & Development Corporation Limited, priority 2006, published 2008).
# Experiments:
# A549 cells = test: Growth inhibition of siRNA-transfected A549 cells, SYBR Green I DNA content; assay type: cell-based, human
# Procedure, shortened: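 Growth read-out: cellular DNA quantified with SYBR Green I (485/535 nm) 96 h after transfection, cells frozen, thawed and lysed in PBS/1% Triton X-100, pH 7. Cells (A549, 5×10^3 cells/cm^2) received 10 nM siRNA by RNAiMAX; non-specific siRNA served as control; triplicate wells averaged.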
# wt HCT-116 cells = test: Growth inhibition of siRNA-transfected wt HCT-116 cells, SYBR Green I DNA content; assay type: cell-based
# Experimental: (§1) A549 cells (human lung cancer cell line; ATCC No. CCL-185), SK-MeI-5 cells (human melanoma cell line; ATCC No. HTB-70), MCF-7 cells (human adenocarcinoma cell line; ATCC No. HTB-22), HCT-116 cells (colorectal carcinoma; ATCC CCL-247) and HCT-116 p53 null cells (derived from ATCC No. CCL-247; Bunz et al., Science 282:1497-1501, 1998) were cultured in RPMI 1640 medium with 10% v/v heat-inactivated fetal calf serum (FCS). Cells were seeded at a density of 5×10^4 cells/cm^2 in multi-well tissue culture plates. Sequences of Stealth™ siRNA duplexes (Invitrogen) targeting human ribonucleotide reductase subunit 1 (SEQ ID NO: 22) and subunit 2 (SEQ ID NO; 38) are given in SEQ ID NO: 4830-4832 (DNA), and SEQ ID NO: 5136-5138 (RNA) for RRM1, and SEQ ID NO: 5306-5308 (DNA), and SEQ ID NO: 5303-5305 (RNA) for RRM2. siRNAs were transfected at different concentrations into cells using Lipofectamine™ RNAiMAX transfection reagent (Invitrogen). Non-specific siRNA (SEQ ID NO: 4804 and 4805 (DNA), and SEQ ID NO: 5301 and 5302 (RNA)) were used as controls. The cellular DNA content was measured using a SYBR Green I-based fluorometric assay at 24, 48, 72 and 96 hours after transfection (120 hours for the MCF-7 cells), as follows. At the indicated time points following reverse transfection, cells were harvested and frozen at −80° C. overnight. Cells were thawed and cell lysis buffer (phosphate-buffered saline (PBS) containing 1% Triton X-100, pH 7) and SYBR Green I (1:10^5 V/V; Invitrogen) was added to the wells and incubated overnight in the dark at 4° C.
# (§2) The following day, cell lysates were mixed thoroughly, and DNA fluorescence was measured with a Wallac Victor^2 plate reader (Turku, Finland) set at an excitation frequency of 485 nm and measuring emission at 535 nm.
# (§3) To determine the effect of the p53-status of cells on RRM1 and RRM2 knockdown, growth inhibition of wild type (wt) HCT-116 and p53 null HCT-116 cells by RRM1 and RRM2-targeted siRNA were determined. Cells were reverse transfected with 1.0 and 10 nM RRM1-3 (SEQ ID NO: 4832 (DNA), and SEQ ID NO: 5138 (RNA)), 1.0 and 10 nM RRM2-2 (SEQ ID NO: 5307 (DNA), and SEQ ID NO: 5304 (RNA)) or 10 nM control siRNA (SEQ ID NO: 4804 (DNA), and SEQ ID NO: 5301 (RNA)), and growth measured daily for up to 4 days post transfection.
# (§4) siRNA-mediated RNAi was also determined on a panel of different cell lines. A549, SK-MeI-5, wt HCT-116, HCT-116−/−p53 and MCF-7 cells were transfected with 10 nM siRNAs targeting YBX-1 and growth inhibition determined as described above. The YBX1 siRNAs are given in SEQ ID NO: 4981 to 4985 (DNA) and SEQ ID NO: 5276-5280 (RNA). A non-specific siRNA (SEQ ID NO: 4804 (DNA) and SEQ ID NO: 5301 (RNA)) was used as control. Growth inhibition by the siRNAs, given in Table 14, was standardized against the inhibition obtained with the control siRNA.
# HCT-116 and A549 cells were transfected with 0.1, 1.0 and 10 nM siRNA targeting TYMS and DHFR (SEQ ID NO: 4833 to 4838 (DNA), and SEQ ID NO: 5139-5144 (RNA)) using Lipofectamine™ RNAiMAX and incubated for 96 h, in either normal fetal calf serum or serum dialyzed to remove low molecular weight molecules (cut-off 10 kDa). Growth of cells was measured by measuring the total DNA content per well using the SYBR Green assay as described above, and values are given as the percentage of the averaged control values. […] Inhibition increased with increasing siRNA concentration, which was not observed with a non-specific control siRNA. […]
# HCT-116 p53 null cells = test: Growth inhibition of siRNA-transfected p53 null HCT-116 cells, SYBR Green I DNA content; assay type: cell-based
# Experimental: as §1, §2, §3, §4
# [1] = system: target transcript mRNA in A549 cells; test: Level of mRNA of target transcript in A549 cells by quantitative RT-PCR (Tables 12 and 13); assay type: cell-based, human; conditions: 24 h post-transfection
# Procedure, shortened: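 Target mRNA was measured by SYBR Green quantitative RT-PCR using random-primed cDNA, normalised to HPRT and Lamin. Samples came from A549 cells 24 h post-transfection with 0.1, 1.0 or 10 nM siRNA.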
# HCT-15 cells = test: Effect of MDR1 knockdown on drug resistance of HCT-15 cells; assay type: cell-based; conditions: 10 nM siRNA; drug 72 h; compared with control siRNA
# Experimental: HCT-15 cells, which express high endogenous levels of MDR1, were reverse transfected with MDR1-specific (SEQ ID NO: 4976 (DNA), and SEQ ID NO: 5271 (RNA)) or control siRNAs (SEQ ID NO: 4804 (DNA), and SEQ ID NO: 5301 (RNA)) at a final concentration of 10 nM. Lipofectamine-siRNA complexes were made by adding 0.3 μl Lipofectamine RNAiMAX in 10 μl RPMI to an equivalent volume of medium containing siRNA, such that the final siRNA concentration would be 10 nM. This mixture was incubated at room temperature for 20 minutes to allow complexes to form, after which time 1,500 HCT-15 cells in 100 μl RPMI supplemented with 10% FCS were added to the wells. […] Drugs used were Doxorubicin (Sigma, St. Louis Mo.), Paclitaxel (Invitrogen) and Etoposide (Sigma, St. Louis Mo.). At the conclusion of the assay, medium was removed and growth inhibition determined as described above.
# SK-Mel-5 cells = test: Growth inhibition of siRNA-transfected SK-Mel-5 cells, SYBR Green I DNA content; assay type: cell-based, human; conditions: 1 nM p53 siRNA with 1 nM YBX1 siRNA SEQ ID NO: 4982
# Experimental: as §1, §2
# siRNA-mediated inhibition of cancer cell growth using siRNA targeting the YBX1 gene (SEQ ID NO: 92) was determined as follows. SK-MeI-5 cells were cultured in RPMI 1640 medium with 10% v/v heat-inactivated fetal calf serum. Cells were cultured as described above and reverse transfected with 0.1, 1.0, 10 and 40 nM (final concentration) of a pool of YBX1-targeting siRNAs (SEQ ID NO: 4982 and 4983 (DNA), and SEQ ID NO: 5277 and 5278 (RNA); referred to as 994 and 995 in FIG. 19) or a non-specific control (SEQ ID NO: 4804 (DNA), and SEQ ID NO: 5301 (RNA); referred to as Stealth 81 ctrl in FIG. 19), and cell growth determined after 120 h by measuring DNA fluorescence with a Wallac Victor^2 plate reader (Turku, Finland) set at an excitation frequency of 485 nm and measuring emission at 535 nm. Growth inhibition by the siRNA pool was standardized against the inhibition obtained with the control siRNAs.
# as §4
# [2] = 1 nM p53 siRNA with 1 nM YBX1 siRNA SEQ ID NO: 4982
substance,measurement,setting,value
"SEQ ID NO: 4832: Stealth siRNA targeting RRM1 (chain 1 ATTCAAAGATGTCTAAATGCCAAGG; chain 2 AUUCAAAGAUGUCUAAAUGCCAAGG; Stealth siRNA, chemical pattern not given here; one strand in two spellings)",Growth Inhibition in A549 cells,"A549 cells; 10 nM siRNA, DNA content 96 hours after transfection",++ (inhibits by at least 75%)
same,"duration of growth inhibition post-transfection, A549","A549 cells; 1 and 10 nM siRNA, measured daily for up to ten days",at least 10 days
same,"growth inhibition, p53 wt HCT-116","wt HCT-116 cells; 1.0 and 10 nM siRNA, up to 4 days, compared with p53 null",equally growth inhibitory
same,"growth inhibition, p53 null HCT-116","HCT-116 p53 null cells; 1.0 and 10 nM siRNA, up to 4 days, compared with p53 wt",equally growth inhibitory
SEQ ID NO: 4976: MDR1-specific siRNA (ABCB1) (chain 1 TTAGCTTCCAACCACGTGTAAATCC; chain 2 UUAGCUUCCAACCACGUGUAAAUCC; chemistry not given here; one strand in two spellings),Growth Inhibition in A549 cells by 10 nM siRNA,"A549 cells; A549 cells, 10 nM siRNA, DNA content 96 hours after transfection, transporter gene targets",− (no growth inhibition)
same,"mRNA knockdown of transporter gene target transcript, 0.1 nM",[1]; 0.1 nM siRNA,− (<50% mRNA knockdown)
same,"mRNA knockdown of transporter gene target transcript, 1 nM",[1]; 1 nM siRNA,− (<50% mRNA knockdown)
same,"sensitivity to doxorubicin, HCT-15",HCT-15 cells,more sensitive
same,"sensitivity to etoposide, HCT-15",HCT-15 cells,more sensitive
same,"sensitivity to paclitaxel, HCT-15",HCT-15 cells,more sensitive
"SEQ ID NO: 5110: p53-targeting Stealth siRNA (chain 1 GCCAAGTCTGTGACTTGCACGTACT; chain 2 GCCAAGUCUGUGACUUGCACGUACU; Stealth siRNA, chemical pattern not given here; one strand in two spellings) [reference compound]","effect of p53 siRNA co-transfection on YBX1 siRNA-mediated growth inhibition, A549",A549 cells; 5 nM p53 siRNA with 5 nM YBX1 siRNA SEQ ID NO: 4982,only partial abrogation of growth inhibition
same,"effect of p53 siRNA co-transfection on YBX1 siRNA-mediated growth inhibition, SK-MeI-5",SK-Mel-5 cells,completely ablated growth inhibition
same,"effect of p53 siRNA co-transfection on YBX1 siRNA-mediated growth inhibition, wt HCT-116",wt HCT-116 cells; [2],only partial abrogation of growth inhibition
same,"effect of p53 siRNA co-transfection on YBX1 siRNA-mediated growth inhibition, HCT-116−/−p53",HCT-116 p53 null cells; [2],only partial abrogation of growth inhibition
